{"source": "paper PMC3744530", "about": "“CTA095, a Novel Etk and Src Dual Inhibitor, Induces Apoptosis in Prostate Cancer Cells and Overcomes Resistance to Src Inhibitors” (PLoS ONE, 2013)", "key": {"RWPE1 cells": {"system": "RWPE1 cells", "assay": "MTT growth inhibition assay", "assay_type": "cell-based", "conditions": "Homo sapiens, RWPE-1, RWPE1 normal prostate cells, 72 h", "description": "(§1) Cells were seeded in 96-well plates and cultured overnight, followed by treatment with 0.1% DMSO, as the vehicle control, and CTA095, at the indicated concentrations for 72 h. Growth inhibition was measured using a 3-(4,5-Dimethylthiazol-2-yl)-2,5-diphenyltetrazolium bromide (MTT) assay (Roche Diagnostic, Mannheim, Germany).\n(§2) Figure 5 Growth Inhibition of CTA095 to LNCAP, CWR22Rv1, PC3 prostate cancer and normal prostate (RWPE1) cells. Cells were seeded at 5,000 cells/well in 96-well plate overnight and treated with CTA095 at the indicated concentrations. The cell viability was measured using MTT assay after 72 h. dots, mean; bars, standard deviation, n = 3."}, "CWR22Rv1 cells": {"system": "CWR22Rv1 cells", "assay": "MTT growth inhibition assay", "assay_type": "cell-based", "conditions": "Homo sapiens, 72 h", "description": "as §1, §2"}, "LNCAP cells": {"system": "LNCAP cells", "assay": "MTT growth inhibition assay", "assay_type": "cell-based", "conditions": "Homo sapiens, 72 h", "description": "as §1, §2"}, "[1]": {"system": "Etk phosphorylation in PC3-Etk cells", "assay": "Western blot of Etk phosphorylation in intact cells", "assay_type": "cell-based, human", "conditions": "5 μM and 10 μM, 24 h", "description": "Western blotting was performed as described previously. Proteins were detected using the following antibodies: β-actin (Sigma-Aldrich, Saint Louis, MO), Etk (Santa Cruz Inc., Santa Cruz, CA), pEtk; Src, pSrc; Stat3, pStat3. For phospho-Etk, cells were pre-treated with 100 μM pervanadate for 15 min before harvest.\nFigure 4 Inhibition of cell signaling in PC3 cells following treatment with CTA095. Cells were grown in 10 mm plate to 50% confluence and treated with CTA095. Cells were harvested after 24 h. pEtk, Etk, pSrc, Src, pStat3, Stat3, pAkt and Akt levels were measured using the corresponding antibodies by Western blot. One of three similar experiments depicted."}, "Btk": {"biological_target": "T1, Btk (Homo sapiens, UniProt Q06187)", "T1 construct": "purchased Millipore Inc (Dundee, UK)", "T1 sequence (Q06187 whole entry)": "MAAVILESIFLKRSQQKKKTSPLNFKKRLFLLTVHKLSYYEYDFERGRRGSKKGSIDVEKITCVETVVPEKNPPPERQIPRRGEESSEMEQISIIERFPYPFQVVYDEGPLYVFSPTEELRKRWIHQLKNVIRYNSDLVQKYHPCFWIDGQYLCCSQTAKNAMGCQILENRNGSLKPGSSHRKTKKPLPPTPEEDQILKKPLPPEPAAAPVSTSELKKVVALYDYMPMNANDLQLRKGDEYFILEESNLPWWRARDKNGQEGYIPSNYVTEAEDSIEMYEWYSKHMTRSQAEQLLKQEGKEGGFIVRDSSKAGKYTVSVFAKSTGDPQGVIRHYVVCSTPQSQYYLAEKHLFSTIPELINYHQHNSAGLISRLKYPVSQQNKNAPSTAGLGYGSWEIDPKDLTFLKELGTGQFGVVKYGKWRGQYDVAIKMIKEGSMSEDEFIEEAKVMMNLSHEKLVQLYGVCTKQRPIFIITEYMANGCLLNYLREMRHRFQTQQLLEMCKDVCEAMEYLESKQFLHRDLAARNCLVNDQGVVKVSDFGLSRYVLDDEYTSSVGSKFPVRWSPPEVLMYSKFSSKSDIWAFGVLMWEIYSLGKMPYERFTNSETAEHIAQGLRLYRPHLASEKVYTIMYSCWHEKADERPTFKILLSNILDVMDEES", "assay": "Kinase inhibition assay (TLC; Kinase-Glo in Figure S2)", "assay_type": "biochemical", "description": "(§3) Kinase inhibition was measured using thin-layer-chromatography (TLC). Briefly, purified kinases (20 nM), the corresponding substrate (500 µM, TSFYGRH for Etk, YIYGSFK for the other kinases), and CTA095 (0–10 µM) were incubated in a kinase reaction (100 mM Hepes, pH 7.4, 10 mM MnCl2, 10 mM MgCl2, 1 mM DTT) for 5 min, and the reaction was started by adding 5 μCi ^33P-labeled ATP. The reaction (10 µl) was incubated at room temperature for 1 h and was stopped by adding 10 μL H3PO4. The radioactivity of the peptide substrate was analyzed using TLC as previously described.\n(§4) Having isolated a small molecule that inhibits Etk, the next logical step was to determine its specificity for this enzyme. To accomplish this, purified Etk, Btk, Src and Yes were incubated in a kinase reaction buffer with CTA095 (0–1 μM) in the presence of ^33P-labeled ATP and a peptide (YIYGSFK), previously shown to be an excellent substrate for both BTK and Src family kinases. The kinase activity was measured using TLC technique.\nSupplementary file pone.0070910.s002.tif: Figure S2 Inhibition of Btk by CTA095. Purified Btk (20 nM), CTA095 (0–100 μM), ATP (500 μM) and the peptide substrate (YIYGSFK) were incubated in a kinase reaction. The kinase activity was measured using Kinase-Glo assay kit (Promega Inc.) following the manufacture's instruction. Columns, mean; bars, standard deviation, n = 3. […]"}, "Src": {"biological_target": "T2, Src (Homo sapiens, UniProt P12931)", "T2 construct": "purchased Millipore Inc (Dundee, UK)", "T2 sequence (P12931 whole entry)": "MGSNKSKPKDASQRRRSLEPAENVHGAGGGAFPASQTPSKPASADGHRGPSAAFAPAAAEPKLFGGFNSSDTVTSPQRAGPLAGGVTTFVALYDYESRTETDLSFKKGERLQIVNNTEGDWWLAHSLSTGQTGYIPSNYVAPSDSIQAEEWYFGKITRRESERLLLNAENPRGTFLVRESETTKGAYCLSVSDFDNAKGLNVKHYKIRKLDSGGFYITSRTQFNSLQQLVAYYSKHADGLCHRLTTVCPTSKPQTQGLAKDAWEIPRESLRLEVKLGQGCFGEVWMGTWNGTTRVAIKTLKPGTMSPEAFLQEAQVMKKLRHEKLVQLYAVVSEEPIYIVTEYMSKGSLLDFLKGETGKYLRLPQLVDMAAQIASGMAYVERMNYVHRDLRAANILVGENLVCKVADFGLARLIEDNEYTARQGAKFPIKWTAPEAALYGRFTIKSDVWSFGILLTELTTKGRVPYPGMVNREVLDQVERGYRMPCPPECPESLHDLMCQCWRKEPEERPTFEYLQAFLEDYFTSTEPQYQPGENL", "assay": "Kinase inhibition assay (TLC, 33P-ATP)", "assay_type": "biochemical", "description": "as §3, §4"}, "[2]": {"system": "BCL2 mRNA in PC3-AZD20 cells", "assay": "Real-time PCR of BCL2 mRNA", "assay_type": "cell-based, human", "conditions": "PC3-AZD20, 10 μM, RT-PCR", "description": "(§5) PC3-AZD20 cells were seeded at 10^6 cells/well in 6 well plates overnight. The cells were treated with AZD0530 or CTA095 at 10 μM. Apoptosis was analyzed using Annexin-V FITC apoptosis detection kit. The mRNA levels of Myc and BCL2 were measured using real-time PCR. pEtk, Etk, pSrc, Src, pStat3, Stat3, Myc and BCL2 levels were measured using the corresponding antibodies through a Western blot.\n(§6) Figure 12 CTA095 induces apoptosis in Src inhibitor resistant prostate cancer cells through Myc and BCL2 inhibition. PC3-AZD20 (PC3 cell resistant to 20 μM AZD0530) cells were seeded at 10^6 cells/well in 6 well plates overnight. The cells were treated with AZD0530 or CTA095 at 10 μM. Apoptosis was analyzed using Annexin-V FITC apoptosis detection kit (A). The mRNA levels of Myc and BCL2 were measured using real-time PCR (B). pEtk, Etk, pSrc, Src, pStat3, Stat3, Myc and BCL2 levels were measured using the corresponding antibodies through Western blot (C). Columns, mean; bars, standard deviation, n = 3."}, "PC3-AZD20 cells": {"system": "PC3-AZD20 cells", "assay": "Annexin-V FITC apoptosis in Src inhibitor resistant cells", "assay_type": "cell-based, human", "conditions": "10 μM", "description": "as §5, §6"}, "[3]": {"system": "PC3 cells stably transfected with GFP-LC3", "assay": "Autophagy assay (GFP-LC3 puncta, LC3 immunoblot)", "assay_type": "cell-based, human", "conditions": "PC3 GFP-LC3, 5 μM, 24 h", "description": "PC3 cells were stably transfected with GFP-LC3 [16]. Cells were grown in a 6-well plate to 50% confluence and treated with 5 μM CTA095 for 24 h. Autophagy was visualized by GFP-LC3 “puncta” and immunoblot of Endogenous LC3 isoforms.\nFigure 6 Induction of autophagy in PC3 cells by CTA095. Cells were grown in 6-well plate to 50% confluence and treated with CTA095. Autophagy was visualized by GFP-LC3 “puncta” (A) and immunoblot of Endogenous LC3 isoforms (B). All experiments were carried out 24 h after treatment."}, "293 cells (Etk negative)": {"system": "293 cells (Etk negative)", "assay": "Annexin V-FITC apoptosis in 293 cells", "assay_type": "cell-based", "conditions": "24 h", "description": "Supplementary file pone.0070910.s005.tif: Figure S5 Induction of apoptosis of 293 cells following treatment with CTA095. 293 cells were seeded at 10^6 cells/ml (2 ml) in a 6-well plate overnight and then treated with CTA095 at the indicated concentrations for 24 h. Apoptosis was analyzed using Annexin-V FITC apoptosis detection kit. Columns, mean; bars, standard deviation, n = 3. (TIF) Click here for additional data file."}}, "data": [{"compound": "O=c1[nH]c2cc3nc(-c4ccc5oc6ccccc6c5c4)n(CCCN4CCCCC4)c3cc2nc1-c1ccccc1", "note": "[CTA095, 2-(dibenzo[b,d]furan-2-yl)-7-phenyl-1-(3-(piperidin-1-yl)propyl)-1H-imidazo[4,5-g]quinoxalin-6(5H)-one]", "values": [{"measurement": "IC50", "setting": "RWPE1 cells", "value": 7.9, "unit": "µM"}, {"measurement": "IC50", "setting": "CWR22Rv1 cells", "value": 4.2, "unit": "µM"}, {"measurement": "IC50", "setting": "LNCAP cells", "value": 3.8, "unit": "µM"}, {"measurement": "Etk phosphorylation", "setting": "[1]", "value": "significantly inhibited"}, {"measurement": "IC50", "setting": "Btk", "value": "> 10", "unit": "µM"}, {"measurement": "IC50", "setting": "Src; TLC assay", "value": 0.12, "unit": "µM"}, {"measurement": "IC50", "setting": "Src; TLC, peptide YIYGSFK, 33P-ATP", "value": "~0.12", "unit": "µM"}, {"measurement": "BCL2 mRNA level", "setting": "[2]", "value": "significantly down regulated"}, {"measurement": "apoptosis in PC3-AZD20 cells", "setting": "PC3-AZD20 cells", "value": "Massive apoptosis was induced"}, {"measurement": "autophagy (GFP-LC3 puncta)", "setting": "[3]", "value": "extensive distinct “puncta” autophagosome morphology"}, {"measurement": "induction of apoptosis", "setting": "293 cells (Etk negative)", "value": "resistant to induce apoptosis"}]}]}
